Read-outs that look alike come from different tables or passages of the source. One block for each compound: values may come before it.
Tests used:
[1] = Oral cassette dosing PK/BBB studies; type: in vivo, male Sprague-Dawley rats; conditions: oral cassette dosing
Description: In-vivo pharmacokinetic (PK) and blood brain barrier (BBB) studies were conducted in male Sprague-Dawley rats using cassette dosing via oral administration. […] No. 15, pp. 652-658.

[2] = Distribution coefficient determination, D7.4 (1-octanol / K2HPO4 buffer); type: physicochemical; conditions: 1-octanol / K2HPO4 buffer 50 mM pH 7.4
Description: K2HPO4 buffer (50 mM, pH=7.4) and 1-octanol were used as the aqueous phase and the organic phase, respectively. The K2HPO4 buffer and 1-octanol were mixed, and pre-saturated with each other before use.
In a typical experiment, an aqueous solution of Apo6995 (3-hydroxy-2-methyl-1-(2,2,2-trifluoroethyl)pyridin-4(1H)-one) was prepared by weighing out 3 mg of the compound into a 10-mL test-tube. It was then mixed with K2HPO4 buffer (2 mL) and sonicated for 30 minutes with frequent vortexing. The solution was then filtered through HPLC syringe filter (4 mm PVDF syringe filter 0.45 μM) to obtain the aqueous solution.
One mL of this aqueous solution was pipetted out into another 10-mL test-tube and mixed with 1 mL of 1-octanol. The mixture was then vortexed for 1 hour. The solution was centrifuged at 2000 rpm for 10 minutes. A small amount of the lower aqueous layer was carefully pipetted out and analyzed by HPLC to obtain the peak height (HF). The distribution coefficient, D7.4, was calculated using the following equation: D7.4=(HI−HF)/HF.

[3] = system: SH-SY5Y human neuroblastoma cells; conditions: for CC2 (cytotoxic concentration): H2O2-treated cells, viability below 80%; for CC1 (cytotoxic concentration): absence of H2O2, viability below 80%
Description: Hydrogen peroxide (H2O2) is a major ROS (reactive oxidative species), which causes oxidative stress, and can induce apoptosis in many different cell types. One of the CNS drug design strategies is to use compounds with antioxidant properties as a possible treatment of both acute and chronic neurodegenerative diseases (Kang et al. Bioorganic & Medicinal Chemistry Letters, 2004, 14, 2261-2264). This involves testing the compounds of this invention for their protective effect against oxidative stress-induced cell death in SH-SY5Y human neuroblastoma cells. SH-SY5Y human neuroblastoma cells were cultured in DMEM (ATCC)/F12 (Cellgro) with 10% FBS. The cells were plated at 30,000 cells/cm^2 and grown for 1 day in the regular culture media prior to compound addition. Cells were routinely treated with the test compound, at a pre-determined range of concentrations, in the presence or absence of 50 μM hydrogen peroxide in a basal medium containing no FBS for 16-22 h. Cell viability was then measured using the routine MTT method (Mosmann, T., Rapid Colorimetric Assay for Cellular Growth and Survival: Application to Proliferation and Cytotoxicity Assays”. J. Immunol. Meth. 1983, 65, 55-63).
For data analysis, cell viability relative to control not treated with either H2O2 or the test compound, was plotted against the compound concentration. […] Cytotoxicity of the test compound was assessed in the absence of hydrogen peroxide.

[4] = system: human neuroblastoma MC-65 cells; test: cells; conditions: for EC100 / minimal effective concentration: Homo sapiens, MC65, 48 h; for EC100: read-out: EC100 (maximum effective concentration); for minimal effective concentration: read-out: TH (threshold protective concentration); for CC2 (cytotoxic concentration): MC-65, cultured without tetracycline; for CC2 (cytotoxic concentration) / CC1 (cytotoxic concentration): viability below 80%; for CC1 (cytotoxic concentration): MC-65, presence of TET
Description: In this assay, human neuroblastoma cells (MC-65 cells) are genetically engineered to conditionally express amyloid β peptide (Aβ). The Aβ production is suppressed by tetracycline (TET+) presence in culture medium, and its production is activated when TET is withdrawn (TET−). The activation of Aβ production results in cell death “MC-65 suicide”.
Protective effect of compounds against edogenously produced amyloid beta (Aβ) was assessed in human neuroblastoma MC-65 cells. MC-65 cells have been stably transformed to conditionally express high levels of a partial amyloid precursor (AP) fusion protein (Bryce Sopher et al., Brain Res Mol Brain Res. 1994, 207-17.). This protein is further proteolitically processed in the cells to form a set of AP-derived Aβ peptides. […] Activity of the promoter is tightly regulated by the presence of the antibiotic tetracycline (TET) in the culture medium. In the presence of TET (TET+), the promoter is in the basal state and no amyloid beta peptide is synthesized. In the absence of TET (TET−) the promoter is in induced state, resulting in the accumulation of Aβ peptides in the cells, degenerative changes in cell morphology and decreased survival.
Transfected human neuroblastoma cells (MC-65) were cultured in DMEM (ATCC) supplemented with non-essential amino acids and 10% FBS (VWR) in the presence of TET (1 μg/mL). For the experiment, the cells were plated at 35,000 cells/cm^2 and grown for 1 day in the regular culture media prior to compound addition. On the day of the assay, culture supernatant was removed from the wells and cells were thoroughly washed once with the compound incubation matrix containing no FBS and no TET. MC-65 cells were treated with a test compound at pre-determined range of concentrations in a basal medium containing no FBS and in the absence or presence of 1 μg/mL TET for approximately 48 h. Cell viability was then measured using the MTT method.
For data analysis, cell viabilities relative to the control not treated with a test compound and maintained in the presence of TET were plotted against the compound concentration. […] Cytotoxicity of the test compound was assessed in the cells maintained in the presence of TET.

[5] = Benzoic acid hydroxylation assay; conditions: benzoic acid 1 mM, H2O2 6 mM, FeCl3 30 μM, chelator 30 μM, pH 7.4, up to 81 h
Description: Benzoic acid is a hydroxyl radical scavenger and reacts with hydroxyl radical to give 2-hydroxy, 3-hydroxy and 4-hydroxybenzoic acids. The benzoic acid hydroxylation assay is a chemical assay designed to detect damage caused by hydroxyl radical (Dean and Nicholson, Free Radical Research 1994, vol 20, 83-101). For example, deferiprone suppresses the formation of hydroxybenzoic acids in the presence of iron salts and hydrogen peroxide, while EDTA and iron salts allow such hydroxylation reactions to take place.
This screening assay involves the use of iron salt, benzoic acid, hydrogen peroxide and the chelator and measures the ability of the chelator to inhibit the formation of hydroxybenzoate as an indicator to prevent hydroxyl radical formation in living system.
Briefly, this procedure is based on the ability of hydroxyl radicals to hydroxylate benzoate to give 2-, 3- and 4-hydroxylated benzoic acid products. Benzoic acid (1 mM) is incubated over time up to 81 h at room temperature in the dark in 10 mM phosphate buffer (pH 7.4) with 6 mM hydrogen peroxide, ferric chloride (30 μM) and the Fe chelator (30 μM). HPLC is the method of choice used to monitor and quantify the amount of 2-, 3- and 4-hydroxylated products formed over time in the reaction mixture, and can be verified against authentic benzoic acid and its hydroxylated products via their respective retention times and areas under curve. In addition, several controls are used: (i) a control without added Fe stock solution and Fe chelator; (ii) a control without added Fe chelator; (iii) EDTA as positive control; and (iv) deferiprone as negative control. The Fe-EDTA system is a hydroxyl radical generator and is known to promote hydroxylation of benzoic acid.

[6] = Pharmacokinetics following oral administration to rats; type: in vivo, male Sprague Dawley rats; conditions: rat, oral 50 mg/kg in 0.5% CMC; for Brain AUC_D_obs / Brain Cmax_D / Plasma AUC_D_obs / Plasma Cmax_D: dose-normalized
Description: Adult male Sprague Dawley rats (275-325 g, Charles River Laboratories, Saint Constant, Quebec) were orally dosed with 50 mg/kg of test compound (Apo7323, Apo7433, Apo7435 or Apo7448) suspended in 0.5% carboxymethylcellulose (CMC) in water. For each test compound, samples were obtained from the plasma and brain of three animals per time point, at 0 (dosed with 0.5% CMC), 0.25, 0.5, 1, 2, 4, 8 and 12 h following administration. The concentration of the compound in rat plasma and brain samples was determined by HPLC-UV. Pharmacokinetic parameters were computed using the PKPlus Module in GastroPlus® ver. 8.0 (Simulations Plus Inc., Lancaster, Calif.). Calculation method: linear trapezoidal with linear interpolation.

[7] = Cyclic voltammetry of iron complexes; type: physicochemical; conditions: for E1/2 vs. Ag/AgCl / E1/2 vs. NHE / ΔE / Eox / Ered: 0.1M aqueous NaCl; for E1/2 vs. Ag/AgCl / E1/2 vs. NHE / ΔE: pH 7.4; for Eox / Ered: pH 7.4, vs. Ag/AgCl; for redox potential E1/2 (vs. NHE): pH 7.4, as quoted
[8] = cited from earlier work

Compound: CCc1c(O)c(=O)ccn1CC(F)(F)F [Apo7030, 2-ethyl-3-hydroxy-1-(2,2,2-trifluoroethyl)pyridin-4(1H)-one]
AUC brain* (cal.) ([1]; rats, normalized to 1 mg/kg, value marked (cal.)): 0.59 cal·µg·h/mL | Kp ([1]; rat, brain and plasma, male Sprague-Dawley rats, read-out: AUC brain/AUC plasma): 1 | AUC ([1]; rat, plasma, male Sprague-Dawley rats, AUC normalized to 1 mg/kg dose): 590 ng·h/mL | D7.4 [2]: 5.93 | logD ([2]; read-out: Log D7.4): 0.77 | CC2 (cytotoxic concentration) [3]: >640 µM | CC1 (cytotoxic concentration) [3]: 640 µM | EC100 [4]: 20 µM | minimal effective concentration [4]: 1 µM | CC2 (cytotoxic concentration) [4]: 40 µM | CC1 (cytotoxic concentration) [4]: 40 µM

Compound: CN(C)c1c(O)c(=O)cc(CC(F)(F)F)n1C [Apo7077, 2-(dimethylamino)-3-hydroxy-1-methyl-6-(2,2,2-trifluoroethyl)pyridin-4(1H)-one]
hydroxylation of benzoic acid by Fe chelate [5]: do not promote the hydroxylation of benzoic acid | EC100 [4]: 10 µM | minimal effective concentration [4]: 1 µM | CC2 (cytotoxic concentration) [4]: 80 µM | CC1 (cytotoxic concentration) [4]: 80 µM

Compound: Cc1[nH]cc(C(N2CCOCC2)C(F)(F)F)c(=O)c1O (centres unmarked) [Apo7433, 3-hydroxy-2-methyl-5-(2,2,2-trifluoro-1-morpholinoethyl)pyridin-4(1H)-one]
CC2 (cytotoxic concentration) [3]: 320 µM | CC1 (cytotoxic concentration) [3]: 320 µM | EC100 [4]: 10 µM | minimal effective concentration [4]: 1 µM | CC2 (cytotoxic concentration) [4]: 40 µM | CC1 (cytotoxic concentration) [4]: 40 µM | CL [6]: 62.7 mL/min/kg | Brain AUC_D_obs [6]: 0.039 kg·µg·h/mL/mg | Brain Cmax_D [6]: 0.400 kg·µg/mL/mg | Plasma AUC_D_obs [6]: 0.860 kg·µg·h/mL/mg | Plasma Cmax_D [6]: 0.396 kg·µg/mL/mg

Compound: Cn1ccc(=O)c(O)c1C(N1CCOCC1)C(F)(F)F (centres unmarked) [Apo7448, 3-hydroxy-1-methyl-2-(2,2,2-trifluoro-1-morpholinoethyl)pyridin-4(1H)-one]
CC2 (cytotoxic concentration) [3]: 320 µM | CC1 (cytotoxic concentration) [3]: 80 µM | EC100 [4]: 20 µM | minimal effective concentration [4]: 1 µM | CC2 (cytotoxic concentration) [4]: 40 µM | CC1 (cytotoxic concentration) [4]: 40 µM | CL [6]: 52 mL/min/kg | Brain AUC_D_obs [6]: 0.486 kg·µg·h/mL/mg | Brain Cmax_D [6]: 0.178 kg·µg/mL/mg | Plasma AUC_D_obs [6]: 1.07 kg·µg·h/mL/mg | Plasma Cmax_D [6]: 0.334 kg·µg/mL/mg

E1/2 vs. Ag/AgCl [7]: −797 mV | E1/2 vs. NHE [7]: −577 mV | ΔE [7]: 89 mV | Eox [7]: −752 mV | Ered [7]: −841 mV | redox potential E1/2 (vs. NHE) [7]: −628 my
Compound: Cc1c([O-])c(=O)ccn1C.Cc1c([O-])c(=O)ccn1C.Cc1c([O-])c(=O)ccn1C.[Fe+3] [Fe(L1)3]

E1/2 vs. Ag/AgCl [7]: −698 mV | E1/2 vs. NHE [7]: −478 mV | ΔE [7]: 112 mV | Eox [7]: −642 mV | Ered [7]: −754 mV | redox potential E1/2 (vs. NHE) [7]: −480 my
Compound: CC(=O)N([O-])CCCCCNC(=O)CCC(=O)N([O-])CCCCCNC(=O)CCC(=O)N([O-])CCCCCN.[Fe+3] [FeDFO]
E1/2 literature value ([8]; versus Ag/AgCl, Crumbliss et al. 2003): −688 mV

Compound: Fe-transferrin: iron bound to the blood protein transferrin
E1/2 vs. Ag/AgCl ([8]; background value): −720 my | E1/2 vs. NHE ([8]; background value): −500 my
